Key:
Format in all cases: in vivo
[1] = tested on: spring wheat, TRZAS Triso; experiment: Tank-mix post-emergence crop damage, herbicide with and without safener cloquintocet-mexyl, greenhouse; parameters: key to Reduction [Difference]: percentage points of damage: damage without safener minus damage with safener
Method: (§1) Seeds of crops (spring wheat, TRZAS; spring barley, HORVS; maize, ZEAMA) were placed in sandy loam soil in peat pots, covered with soil and cultivated in a greenhouse under good growth conditions. Two to three weeks after sowing, the test plants were treated at the 1 to 3-leaf stage. The herbicide/safener active compound combinations according to the invention, formulated as wettable powders or emulsion concentrates, and, in parallel tests, the correspondingly formulated individual active compounds were sprayed onto the green parts of the plants in various dosages using an amount of water of 300 l/ha (converted).
(§2) The pots were returned under good growing conditions in a glasshouse and a visual assessment of herbicidal effects was made at intervals from 1 to 3 weeks after herbicide application (DAT=days after treatment). Assessment was on a percentage basis in comparison with untreated control plants (0%=no injury, 100%=complete kill).
(§3) Reduction [Difference]=herbicide damage without safener−herbicide damage with safener
(§4) Reduction [%]=(Reduction [Difference]*100)/herbicide damage without safener
(§5) b) Plant Species, Variety: TRZAS Triso, Safener (SAF): Cloquintocet-Mexyl

[2] = tested on: spring wheat, TRZAS Triso; experiment: Safener seed treatment, post-emergence herbicide application, crop damage; details: for HER effect + SAF [%] / Reduction [%]: cloquintocet-mexyl 0, 5 g a.i./kg seed; for HER effect [%]: without safener
Source text: (§6) For safener seed treatment trials, sufficient seed amounts of the respective crops (spring wheat (TRZAS); spring barley (HORVS)) were weighed into screw cap glass bottles with a minimum volume trice of the seeds.
(§7) As a first step, specified safeners formulated as wettable powder (WP) or wettable granules (WG) were weighed out for the required dosages (g a.i./kg seed), corresponding to the seed amounts. The safener amounts were mixed with a coloured slurry blind formulation type, pre-diluted with milk at 3.5% fat rate (25 mgs slurry formulation plus 2 ml milk per 10 grams of seed). A tube roller was used for coating. The solutions were gradually pipetted each on the rotating seeds followed by coating for min. 3 hours until all liquid had been soaked up by the seeds. Thereafter, the coated seeds were put flat on open trays for drying over night at room temperature.
(§8) Treated seeds were then placed into pots (7 cm diameter) on the surface of sandy loam, pressed down, flat covered with additional soil and finally covered with sandy soil, also pressed down, watered, and kept under good growth conditions in a greenhouse, until the plants had reached 2-leaf-stage (BBCH 12).
(§9) At that stage, post-emergence application of the specified herbicides was done on: • a) pot sets containing plants with safener-coated seeds as described above, • b) as a reference, pot sets of plants without seed treatment.
(§10) The herbicides were formulated as wettable powder (WP). Equivalent to the spray area, compound amounts were weighed out and diluted related to the water application rate (300 l/ha) to an aqueous suspension plus additive (1 l/ha MERO). Dosage related equivalents were conventionally sprayed on trays with the potted plants.
(§11) After application, the test plants were kept under good growth conditions in a greenhouse. Assessment timings were 10 and 21 days after treatment (DAT) with the herbicide, by visual scoring of the crop damage in % (comparison of untreated with treated plants, either sprayed only with herbicide or with herbicide on plants with treated seeds).
as §3, §4, §5

[3] = tested on: spring barley, HORVS Montoya; experiment: Tank-mix post-emergence crop damage, herbicide with and without safener cloquintocet-mexyl, greenhouse; parameters: key to Reduction [Difference]: damage without safener − damage with safener, % points (0–100% scale); details: cloquintocet-mexyl 100 g a.i./ha
Method: as §1, §2, §3, §4
(§12) a) Plant Species, Variety: HORVS Montoya, Safener (SAF): Cloquintocet-Mexyl

[4] = tested on: spring barley, HORVS Montoya; experiment: Safener seed treatment, post-emergence herbicide application, crop damage; parameters: key to Reduction [Difference]: % crop damage without safener minus % damage with safener; details: for HER effect + SAF / Reduction [%] / Reduction [Difference]: cloquintocet-mexyl 0, 5 g a.i./kg seed
Source text: as §6, §7, §8, §9, §10, §11, §3, §4, §12

[5] = 21 DAT, HER dose 1, 5 g a.i./ha, cloquintocet-mexyl 50 g a.i./ha
[6] = 21 DAT, HER dose 1, 5 g a.i./ha
[7] = 10 DAT, HER dose 8 g a.i./ha, cloquintocet-mexyl 50 g a.i./ha
[8] = 10 DAT, HER dose 32 g a.i./ha, cloquintocet-mexyl 100 g a.i./ha
[9] = 10 DAT, HER dose 2 g a.i./ha, cloquintocet-mexyl 50 g a.i./ha
[10] = 21 DAT, HER dose 8 g a.i./ha, cloquintocet-mexyl 50 g a.i./ha
[11] = 21 DAT, HER dose 32 g a.i./ha, cloquintocet-mexyl 100 g a.i./ha
[12] = 21 DAT, HER dose 16 g a.i./ha, cloquintocet-mexyl 100 g a.i./ha

## C=CC1(C(=O)NC2C=C(C(=O)OCC#N)OC2)CC(c2cc(F)cc(F)c2)=NO1 (stereo not shown) [Example 1.91]
[1]; [5]
  Reduction [%]: 71%
  Reduction [Difference]: 50
[1]; 21 DAT, HER dose 24 g a.i./ha, cloquintocet-mexyl 100 g a.i./ha
  Reduction [%]: 75%
[2]; [6]
  HER effect + SAF [%]: 20%
  Reduction [%]: 71%
  HER effect [%]: 70%
[2]; 21 DAT, HER dose 6 g a.i./ha
  HER effect + SAF [%]: 30%
  HER effect [%]: 90%
[2]; 21 DAT, HER dose 24 g a.i./ha
  HER effect + SAF [%]: 20%
  Reduction [%]: 75%
  HER effect [%]: 80%

## COCCOC(=O)C1C=CC(NC(=O)C2(C(F)(F)F)CC(c3cc(F)cc(C#N)c3)=NO2)C1 (stereo not shown) [Example 1.2]
[1]; [7]
  HER effect + SAF: 70%
  Reduction [%]: 22%
[3]; 10 DAT, HER dose 8 g a.i./ha
  HER effect + SAF: 10%
[2]; 10 DAT, HER dose 8 g a.i./ha
  HER effect + SAF [%]: 0%
  HER effect [%]: 90%
[2]; 10 DAT, HER dose 32 g a.i./ha
  HER effect + SAF [%]: 10%
  HER effect [%]: 90%
[4]; 10 DAT, HER dose 8 g a.i./ha
  HER effect + SAF: 10%

## COC(=O)C1C=CC(NC(=O)C2(C)CC(c3cccc(F)c3)=NO2)C1 (stereo not shown) [Example 1.20]
[1]; [8]
  Reduction [%]: 80%
[3]; 21 DAT, HER dose 32 g a.i./ha
  Reduction [%]: 88%
  Reduction [Difference]: 70
[2]; 10 DAT, HER dose 8 g a.i./ha
  HER effect + SAF [%]: 0%
  HER effect [%]: 20%
[2]; 10 DAT, HER dose 32 g a.i./ha
  HER effect + SAF [%]: 0%
  HER effect [%]: 50%
[4]; 21 DAT, HER dose 32 g a.i./ha
  Reduction [%]: 88%
  Reduction [Difference]: 70

## COCCOC(=O)C1C=CC(NC(=O)C2(C)CC(c3cc(Cl)cc(C#N)c3)=NO2)C1 (stereo not shown) [Example 1.5]
[1]; [9]
  HER effect + SAF: 20%
  Reduction [%]: 60%
  Reduction [Difference]: 30
[2]; 21 DAT, HER dose 8 g a.i./ha
  HER effect + SAF [%]: 10%
  HER effect [%]: 90%
[2]; 21 DAT, HER dose 32 g a.i./ha
  HER effect + SAF [%]: 30%
  HER effect [%]: 95%
[4]; 21 DAT, HER dose 8 g a.i./ha
  HER effect + SAF: 10%
  Reduction [%]: 80%
  Reduction [Difference]: 40
[4]; 21 DAT, HER dose 32 g a.i./ha
  HER effect + SAF: 20%
  Reduction [%]: 75%
  Reduction [Difference]: 60

## C=CC1(C(=O)NC2C=CC(C(=O)O)C2)CC(c2cc(F)cc(F)c2)=NO1 (stereo not shown) [Example 1.58]
[1]; [10]
  HER effect + SAF: 50%
  Reduction [%]: 46%
  Reduction [Difference]: 43
[1]; [11]
  HER effect + SAF: 60%
  Reduction [%]: 35%
  Reduction [Difference]: 33
[2]; 21 DAT, HER dose 2 g a.i./ha
  HER effect + SAF [%]: 0%
  HER effect [%]: 85%
[2]; 21 DAT, HER dose 8 g a.i./ha
  HER effect + SAF [%]: 10%
  HER effect [%]: 93%
[2]; 21 DAT, HER dose 32 g a.i./ha
  HER effect + SAF [%]: 20%
  Reduction [%]: 78%
  HER effect [%]: 93%

## CC1(C(=O)NC2C=CC(C(=O)OCCCl)C2)CC(c2cc(F)cc(F)c2)=NO1 (mixture of isomers) [Example 1.47]
[1]; 21 DAT, HER dose 4 g a.i./ha, cloquintocet-mexyl 50 g a.i./ha
  HER effect + SAF: 0%
[1]; [12]
  HER effect + SAF: 5%
  Reduction [%]: 94%
  Reduction [Difference]: 75
[2]; 21 DAT, HER dose 4 g a.i./ha
  HER effect + SAF [%]: 10%
  HER effect [%]: 30%
[2]; 21 DAT, HER dose 16 g a.i./ha
  HER effect + SAF [%]: 10%
  HER effect [%]: 80%
[4]; 21 DAT, HER dose 12 g a.i./ha
  HER effect + SAF: 0%
[4]; 21 DAT, HER dose 12 g a.i./ha, without safener
  HER effect: 20%
[4]; 21 DAT, HER dose 48 g a.i./ha
  Reduction [Difference]: 75

## C=CC1(C(=O)NC2COC(C(=O)OC)C2)CC(c2cc(C)cc(F)c2)=NO1 (mixture of isomers) [Example 1.71]
[1]; [8]
  HER effect + SAF: 10%
  Reduction [%]: 88%
  Reduction [Difference]: 75
[3]; 21 DAT, HER dose 32 g a.i./ha
  Reduction [%]: 57%
  Reduction [Difference]: 40
[2]; 10 DAT, HER dose 8 g a.i./ha
  HER effect + SAF [%]: 0%
  HER effect [%]: 50%
[2]; 10 DAT, HER dose 32 g a.i./ha
  HER effect + SAF [%]: 0%
  HER effect [%]: 85%

## C=CC1(C(=O)NC2CC=C(C(=O)OC)C2)CC(c2cc(F)cc(F)c2)=NO1 (mixture of isomers) [Example 1.60]
[1]; [10]
  HER effect + SAF: 70%
  Reduction [%]: 25%
  Reduction [Difference]: 23
[1]; 21 DAT, HER dose 8 g a.i./ha, without safener
  HER effect: 93%
[3]; 21 DAT, HER dose 8 g a.i./ha
  HER effect + SAF: 0%
  Reduction [Difference]: 80
[2]; 21 DAT, HER dose 8 g a.i./ha
  HER effect + SAF [%]: 10%
  HER effect [%]: 93%
[2]; 21 DAT, HER dose 32 g a.i./ha
  HER effect + SAF [%]: 10%
  HER effect [%]: 95%

## CC1(C(=O)NC2COC(C(=O)OCc3ccccc3)C2)CC(c2cccc(F)c2)=NO1 (mixture of isomers) [Example 1.79]
[1]; 10 DAT, HER dose 24 g a.i./ha, cloquintocet-mexyl 100 g a.i./ha
  Reduction [Difference]: 50
[2]; 10 DAT, HER dose 6 g a.i./ha
  HER effect + SAF [%]: 0%
  HER effect [%]: 30%
[2]; 10 DAT, HER dose 24 g a.i./ha
  HER effect + SAF [%]: 10%
  HER effect [%]: 50%
[4]; 10 DAT, HER dose 24 g a.i./ha
  Reduction [%]: 86%
  Reduction [Difference]: 60

Source: patent US20230276792A1, “SELECTIVE HERBICIDES BASED ON SUBSTITUTED ISOXAZOLIN CARBOXAMIDES AND CLOQUINTOCET-MEXYL” (Bayer Aktiengesellschaft, priority 2020, published 2023)
